# Assay results as given in patent US10709724B2, “Methods of treating mitochondrial dysfunction” (Ecole Polytechnique Federale de Lausanne (EPFL), priority 2011, dated 2020).
# Where “and” joins values, the source holds several entries; their conditions need not be identical. Equal entries are not always repeated. Entries after “also recorded” stand apart in the source; their conditions may differ.
# Assays:
# HEK293T cells = test: Nampt, PARP activity, glycolysis and ATP in NR-treated HEK293T cells; format: cell-based, human
# Experimental: (§1) mRNA and mtDNA Analysis. Total RNA was prepared using TRIzol (Invitrogen) according to the manufacturer's instructions. RNA was treated with DNase, and 2 μg of RNA was used for reverse transcription (RT). cDNA was purified on QIAquick PCR cleanup columns (Qiagen, Valencia, Calif., USA). 50× diluted cDNA was used for RT-quantitative PCR (RT-VCR) VCR) reactions (Bai et al., 2007). The RT-qPCR reactions were performed using the Light-Cycler system (Roche Applied Science) and a qPCR Supermix (Qiagen) with the primers for mice summarized in Table 1 and 4, and with the primers for worms summarized on Table 7. mtDNA quantification was performed as described (Lagouge et al., 2006) with the primers indicated in Table 2 and 5.
# Immunoprecipitation, SDS-PAGE, Western Blotting. […] Reactions were developed by enhanced chemiluminescence (Amersham, Little Chalfont, UK), PGC-1α, FOXO1 and Ndufa9 acetylation levels were analyzed by immunoprecipitation from cellular or nuclear lysates of tissues with anti-PGC-1α (Millipore), anti-FOXO1 (Cell Signaling, Danvers, Mass., USA) and anti-Ndufa9 (Abcam) antibody followed by Western blot using an acetyl-lysine antibody (Cell Signaling) that was normalized to total PGC-1a/FOXO1/Ndufa9 levels (Lagouge et al., 2006; Rodgers et al., 2005). […] All blots were quantified by densitometry using ImageJ software. […]
# C. elegans [1] = test: NAD measurement by HPLC in worms; format: in vivo; conditions: day 4 of adulthood
# Experimental: Worm Respiration Assays Oxygen consumption was measured using the Seahorse XF24 equipment (Seahorse Bioscience Inc., North Billerica, Mass.) as described in Yamamoto et al. Typically, 200 animals per conditions were recovered from NGM plates with M9 medium, washed three times in 2 mLM9 to eliminate residual bacteria, and resuspended in 500 μL M9 medium. Worms were transferred in 24-well standard Seahorse plates (#100777-004) (50 worms per well) and oxygen consumption was measured 6 times. Respiration rates were normalized to the number of worms in each individual well. NAD measurement by HPLC For NAD+ quantification, approximately 1000 worms were collected in M9 buffer, washed five times to remove residual bacteria and flash-frozen in liquid nitrogen and stored at −80° C. until analysis. Extraction was started by adding 250 μl of 1.6M perchloric acid on frozen samples, followed by extensive homogenization in a Qiagen tissuelyser, and centrifugation at 20.000 g for 15 min. The supernatant was recovered and neutralized with a 3M potassium carbonate solution. […]
# C. elegans [2] = test: Worm lifespan analysis; format: in vivo; conditions: for variation compared to control (%): vs N2 + water
# Experimental: Worm Lifespan Analysis Lifespan tests were performed as described in Mouchiroud et al (L. Mouchiroud et al., Pyruvate imbalance mediates metabolic reprogramming and mimics lifespan extension by dietary restriction in Caenorhabditis elegans. Aging Cell 10, 39 (2011)). Briefly, 60-100 animals were used per conditions and scored every other day. All lifespan experiments were performed at 20° C. […] Animals were exposed to compounds during the full life from eggs until death. To ensure a permanent exposure to the compound, plates were changed twice a week. All the compounds used in this study were dissolved in a water stock solution.
# SIRT1 = SIRT1 activity (FOXO1 acetylation, target genes) in NR-treated HEK293T cells; format: cell-based, human
# Experimental: as §1
# Immunoprecipitation, SDS-PAGE, Western Blotting. Cells were lysed in lysis buffer (50 mM Tris, […], EDTA 1 mM, NP40 1%, nicotinamide 5 mM, Na-butyrate 1 in M, protease inhibitors pH7.4). Proteins were separated by SDS-PAGE and transferred onto nitrocellulose membranes. The origin of the primary and secondary antibodies used can be found as supplemental experimental procedures. Reactions were developed by enhanced chemiluminescence (Amersham, Little Chalfont, UK), PGC-1α, FOXO1 and Ndufa9 acetylation levels were analyzed by immunoprecipitation from cellular or nuclear lysates of tissues with anti-PGC-1α (Millipore), anti-FOXO1 (Cell Signaling, Danvers, Mass., USA) and anti-Ndufa9 (Abcam) antibody followed by Western blot using an acetyl-lysine antibody (Cell Signaling) that was normalized to total PGC-1a/FOXO1/Ndufa9 levels (Lagouge et al., 2006; Rodgers et al., 2005). In HEK293T cells HA-tagged PGC-1α was overexpressed and was immunoprecipitated using an anti-HA. In C2C12 myotubes, FLAG-HA tagged PGC-1α was introduced through adenoviral delivery 2 days before treatments, then IP was performed using anti-FLAG antibody and samples were processed as described. All blots were quantified by densitometry using ImageJ software. Poly(ADP-Ribose) detection was performed as previously described with slight modifications (Bai et al., PARP-1 inhibition increases mitochondrial metabolism through SIRT1 activation. Cell Metab 13, 461-468. (2011)) Briefly, PAR was detected by using a monoclonal anti-PAR antibody (Alexis, Lausanne Switzerland) by Western blotting of total protein lysates, using either […] of total worm protein lysates, […] of liver protein lysate or 200 g of muscle total protein extracts. PGC-1 acetylation was determined using PGC-1 immunoprecipitates from 2 mg of protein extracts, as described in Canto et al. (Canto et al., AMPK regulates energy expenditure by modulating NAD+ metabolism and SIRT1 activity. Nature 458, 1056 (2009)).
compound,measurement,setting,value
"NC(=O)c1ccc[n+]([C@@H]2O[C@H](CO)[C@@H](O)[C@H]2O)c1 [NR, nicotinamide riboside]",cellular glycolytic rates or ATP levels,HEK293T cells,not linked to changes in cellular glycolytic rates or ATP levels
same,Nampt mRNA or protein content,"HEK293T cells; 0.5 mM, 24 hrs",could not see any change
same,NAD+ levels in C. elegans,C. elegans [1],increased NAD+ levels; also recorded: increases
same,mean lifespan ± SE,"C. elegans [2]; N2, 200 nM",21.1 ± 0.88 days
same,variation compared to control (%),"C. elegans [2]; N2, 200 nM",+17.9%
same,mean lifespan ± SE,"C. elegans [2]; N2, 500 nM",23.5 ± 0.56 days and 24.9 ± 0.68 days and 20.6 ± 1.02 days
same,mean lifespan ± SE,"C. elegans [2]; N2, 1000 nM",20.0 ± 0.89 days
same,variation compared to control (%),"C. elegans [2]; N2, 1000 nM",+11.7%
same,lifespan in daf-16 mutant worms,C. elegans [2]; daf-16(mu86) mutant worms,completely abolished; also recorded: daf-16-dependent
same,mean lifespan ± SE,"C. elegans [2]; daf-16(mu86), 500 nM",19.1 ± 0.51 days
same,variation compared to control (%),"C. elegans [2]; daf-16(mu86), 500 nM",−7.8%
same,lifespan in sir-2.1(ok434) mutant / sir-2.1 dependence,C. elegans [2]; sir-2.1(ok434) mutant worms,sir-2.1-dependent fashion; also recorded: sir-2-dependent manner
same,mean lifespan ± SE,"C. elegans [2]; sir-2.1(ok434), 500 nM",23.2 ± 0.61 days
same,variation compared to control (%),"C. elegans [2]; sir-2.1(ok434), 500 nM",+12.0%
same,lifespan,C. elegans [2]; wild type N2 worms,extended lifespan; also recorded: increases
same,"expression of FOXO1 target genes (Gadd45, Catalase, Sod1, Sod2)",SIRT1,higher expression of target genes
same,Sod2 expression,"SIRT1; 0.5 mM, 24 hrs","higher expression of a FOXO1 target gene, Sod2"
same,Ucp2 mRNA levels,"SIRT1; 0.5 mM, 24 hrs",decreased Ucp2 mRNA levels
same,Ucp2 expression with Sirt1 knock-down,"SIRT1; 0.5 mM, 24 hrs, SIRT1 siRNAs",knocking down Sirt1 prevented the action of NR on Ucp2 expression
same,intracellular NAD+ content with SIRT1 knock-down,"SIRT1; 0.5 mM, 24 hrs, SIRT1 siRNAs",did not compromise the ability of NR to increase intracellular NAD^+ content
same,Sod2 expression with Foxo1 or Sirt1 knockdown,"SIRT1; 0.5 mM, 24 hrs, siRNAs",prevented by the knockdown of either Foxo1 or Sirt1
same,SIRT1 protein levels,SIRT1; 24 hrs,lack of changes in SIRT1 protein levels
same,acetylation of FOXO1,"SIRT1; 24 hrs, SIRT1-dependent",dose-dependently decreased the acetylation of FOXO1
